In patent US20130096160A1, “ARYLTHIAZOLYL PIPERIDINES AND RELATED COMPOUNDS AS MODULATORS OF SURVIVAL MOTOR NEURON (SMN) PROTEIN PRODUCTION” (Secretary, Department of Health and Human Services, priority 2010, published 2013):

Tested on: SMN2-luciferase reporter
Test: SMN2-luciferase reporter qHTS assay
Format: cell-based, human
Design: key to Curve Class: A curve class of 1.1 is a full agonist/antagonist; a curve class of 4 indicates the compound is inactive
Settings: for Curve Class: agonist/antagonist character of the concentration-response, lower values = more significant concentration-response; for Increased SMN2 activity: percent increase (or decrease) in SMN2 levels compared to control in which no test compound is added
Text: A cell-based quantitative high throughput screening (qHTS) assay is used to identify compounds able to increase SMN production. The assay uses a SMN2-luciferase reporter to determine if exon 7 of the SMN gene is expressed, which correlates with increased full-length SMN production from the SMN2 gene. As controls, a homologue SMN1-luciferase reporter cell line looks for variations in expression of the SMN1 gene and a cell line with just the luciferase reporter looks at the capacity of the compounds to inhibit luciferase. In addition, increments in SMN production by lead compounds were confirmed by Western-Blot analysis using SMA patient fibroblasts.
For the qHTS assay, concentration-response profiles are generated at the primary-screen level for each library compound to minimize the number of false positives. A dilution series consisting of seven points separated by five-fold concentration differences is prepared for each compound, yielding a concentration series that spans a range of about four orders of magnitude, for example from a high concentration of 50 micromolar to a low concentration of 3.2 nanomolar and providing adequate data for fitting to a Hill equation. For the assay, the SMN2 reporter cell line was plated at a density of ˜2000 cells/well in complete media (phenol red free DMEM, 10% detacl calf serum, and 1× pen/strep), in 1536 well white solid bottom tissue culture treated plates (Greiner). Cells were allowed to adhere and recover at 37 C in 5% CO2 for 10-12 hours. Compounds were added to the plates by a Pintool (Kalypsys) at a volume of 23 nl/well. Cells were incubated in the presence of compounds for 2 days at 37 C in 5% CO2. In order to quantify luciferase reporter levels, 3 ul/well of OneGlo (Promega) was added to each well and incubated at room temperature for 10 minutes. Luminescence from the reporter in each well is measured using a Viewlux CCD based imager (Perkin Elmer) with an integration time of 30 seconds and a binning of 2× in luminescence mode. Sodium butyrate was used as the positive control compound for luciferase induction and a column of 32 wells of 9.2 mM compound on each plate was used to monitor assay performance.
The SMN reporters used herein are modified from those previously described (M. L. Zhang, C. L. Lorson, E. J. Androphy and J. Zhou, An in vivo reporter system for measuring increased inclusion of exon 7 in SMN2 mRNA: potential therapy of SMA, Gene Ther 8 (2001), pp. 1532-1538.)
The sequence of the SMN1 reporter vector used herein is given in SEQ ID NO.:1, while that of the SMN2 reporter vector is given in SEQ ID NO.:2.
Each of the SMN reporters is constructed from three separate DNA fragments: (1) an SMN promotor sequence from the transcriptional reporter p 4.0T (SMN1) or p3.4C (SMN2) described in Monani, et al. Biochimica et Biophysica Acta 1445 (1999) 330-336; (2) a modification of the firefly luciferase splicing reporter for SMN1 or SMN2 described by Zhang et al; and (3) a 744 bp SMN cDNA fragment.
The 3.7 kB SMN1 promoter fragment is obtained by restriction of p4.0T with BglII and SacII. A 3.4 kB SMN2 promoter fragment is obtained by restriction of p3.4C with KpnI and SacII; a 300 bp BglII/KpnI fragment from p4.0T is then added to the 3.4 kB SMN2 promoter fragment to yield the final 3.7 kB SMN2 promoter fragment.
The modified SMN1 and SMN2 firefly luciferase splicing reporters are obtained by removing 4 kB of intron 6 in the original reporter system by restriction with SmaI/Swa followed by religation of the reporter. A 4 kB luciferase splicing reporter is then obtaind by digestion with XhoI and NotI.
Ths SMN cDNA fragment is obtained by generating the productof a polymerase chain reaction (PCR) on a cDNA preparation using […] (SEQ ID NO:3) as the forward primer and Tatctcgagtggtccagaaggaaatggaggcagcc (SEQ ID NO:4) as the reverse primer. The PCR product is then digested with XhoI and SacII. […]

Row | SMILES | Curve Class | Increased SMN2 activity [%]
1 | NC(=O)C1CCN(c2ncc(-c3cccc(N4CCOCC4)c3)s2)CC1 [Example 139, 1-(5-(3-Morpholinophenyl)Thiazol-2-yl)Piperidine-4-Carboxamide] | 1.1 | 275.2
2 | CN(C)c1cccc(-c2cnc(N3CCC(c4ncc[nH]4)CC3)s2)c1 [Example 136, 3-(2-(4-(1H-Imidazol-2-yl)Piperidin-1-yl)Thiazol-5-yl)-N,N-Dimethylaniline] | 1.1 | 188.2
3 | NC(=O)C1CCN(c2nc(-c3cc4ccccc4o3)cs2)CC1 [Example 68, 1-(4-(Benzofuran-2-yl)Thiazol-2-yl)Piperidine-4-Carboxamide] | 2.1 | 100
4 | CC(=O)C1CCN(c2ncc(-c3cccc(N(C)C)c3)s2)CC1 [Example 141, 1-(1-(5-(3-(Dimethylamino)Phenyl)Thiazol-2-yl)Piperidin-4-yl)Ethanone] | 1.1 | 224.6
5 | Brc1ccc(-c2csc(N3CCC(c4nnn[nH]4)CC3)n2)cc1 [Example 112, 2-(4-(1H-Tetrazol-5-yl)Piperidin-1-yl)-4-(4-Bromophenyl)Thiazole] | 2.1 | 66.77
6 | NC(=O)C1CCN(c2nc(-c3ccccc3)cs2)CC1 [Example 30, 1-(4-Phenylthiazol-2-yl)Piperidine-4-Carboxamide] | 1.1 | 166.6
7 | NC(=O)C1CCN(c2nc(-c3cccc4sc5ccccc5c34)cs2)CC1 [Example 64, 1-(4-(Dibenzo[b,d]Thiophen-1-yl)Thiazol-2-yl)Piperidine-4-Carboxamide] | 2.1 | 369
8 | NC(=O)C1CCN(c2ncc(-c3ccc4c(c3)OC(F)(F)O4)s2)CC1 [Example 153, 1-(5-(2,2-Difluorobenzo[D][1,3]Dioxol-5-yl)Thiazol-2-yl)Piperidine-4-Carboxamide] | 1.1 | 598.4
9 | NC(=O)C1CCN(c2nc(-c3ccc(N4CCCCC4)nc3)cs2)CC1 [Example 60, 1-(4-(6-(Piperidin-1-yl)Pyridin-3-yl)Thiazol-2-yl)Piperidine-4-Carboxamide] | 2.1 | 100
10 | NC(=O)C1CCN(c2nc(-c3ccc4ccccc4c3)cs2)CC1 [Example 56, 1-(4-(Naphthalen-2-yl)Thiazol-2-yl)Piperidine-4-Carboxamide] | 1.1 | 162
11 | O=C(NCCc1ccccc1)C1CCN(c2nc(-c3ccc(Br)cc3)cs2)CC1 [Example 77, 1-(4-(4-Bromophenyl)Thiazol-2-yl)-N-Phenethylpiperidine-4-Carboxamide] | 2.4 | 31.29
12 | CN(C)c1cccc(-c2ncc(F)c(N3CCC(C(N)=O)CC3)n2)c1 [Example 152, 1-(2-(3-(Dimethylamino)Phenyl)-5-Fluoropyrimidin-4-yl)Piperidine-4-Carboxamide] | 1.1 | 141.8
13 | CN(C)C(=O)C1CCN(c2nc(-c3ccc(Br)cc3)cs2)CC1 [Example 71, 1-(4-(4-Bromophenyl)Thiazol-2-yl)-N,N-Dimethylpiperidine-4-Carboxamide] | 2.4 | 42.71
14 | NC(=O)C1CCN(c2nc(-c3ccc4c(c3)OCO4)cs2)CC1 [Example 47, 1-(4-(Benzo[D][1,3]Dioxol-5-yl)Thiazol-2-yl)Piperidine-4-Carboxamide] | 1.1 | 359.16
15 | NC(=O)C1CCN(c2ncc(-c3cccc(N4CCCCC4)c3)s2)CC1 [Example 138, 1-(5-(3-(Piperidin-1-yl)Phenyl)Thiazol-2-yl)Piperidine-4-Carboxamide] | 1.1 | 565.6
16 | COc1cc(-c2csc(N3CCC(C(N)=O)CC3)n2)cc(OC)c1OC [Example 84, 1-(4-(3,4,5-Trimethoxyphenyl)Thiazol-2-yl)Piperidine-4-Carboxamide] | 2.2 | 73.33
17 | N#Cc1ccc(-c2csc(N3CCC(C(N)=O)CC3)n2)cc1 [Example 18, 1-(4-(4-Cyanophenyl)Thiazol-2-yl)Piperidine-4-Carboxamide] | 2.2 | 48.75
18 | NC(=O)C1CCN(c2nc(-c3ccc4occc(=O)c4c3)cs2)CC1 [Example 50, 1-(4-(4-Oxo-4H-Chromen-6-yl)Thiazol-2-yl)Piperidine-4-Carboxamide] | 2.1 | 589.68
19 | CCOc1ccc(-c2csc(N3CCC(C(N)=O)CC3)n2)cc1 [Example 96, 1-(4-(4-Ethoxyphenyl)Thiazol-2-yl)Piperidine-4-Carboxamide] | 1.1 | 211.6
20 | NC(=O)C1CCN(c2ncc(-c3ccc4c(c3)OCCO4)s2)CC1 [Example 120, 1-(5-(2,3-Dihydrobenzo[B][1,4]Dioxin-6-yl)Thiazol-2-yl)Piperidine-4-Carboxamide] | 1.1 | 424.6
21 | NC(=O)C1CCN(c2ncnc(-c3ccc4c(c3)OCCCO4)n2)CC1 [Example 144, 1-(4-(3,4-Dihydro-2H-Benzo[B][1,4]Dioxepin-7-yl)-1,3,5-Triazin-2-yl)Piperidine-4-Carboxamide] | 1.1 | 186.2
22 | NC(=O)C1CCN(c2nc(-c3ccccc3N)cs2)CC1 [Example 53, 1-(4-(2-Aminophenyl)Thiazol-2-yl)Piperidine-4-Carboxamide] | 3 | 79.57
23 | CN(C)c1cccc(-c2cnc(N3CCC(C(N)=O)CC3)s2)c1 [Example 88, 1-(5-(3-(Dimethylamino)Phenyl)Thiazol-2-yl)Piperidine-4-Carboxamide] | 1.1 | 550.44
24 | CCOC(=O)C1CCN(c2ncc(-c3ccc4c(c3)OCCCO4)s2)CC1 [Example 146, Ethyl 1-(5-(3,4-Dihydro-2H-Benzo[B][1,4]Dioxepin-7-yl)Thiazol-2-yl)Piperidine-4-Carboxylate] | 1.1 | 319.6
25 | CC(C)Oc1cccc(-c2csc(N3CCC(C(N)=O)CC3)n2)c1 [Example 107, 1-(4(3-Isopropoxyphenyl)Thiazol-2-yl)Piperidine-4-Carboxamide] | 1.1 | 605.6
26 | O=C(C1CCN(c2nc(-c3ccc(Br)cc3)cs2)CC1)N1CCOCC1 [Example 74, (1-(4-(4-Bromophenyl)Thiazol-2-yl)Piperidin-4-yl)(Morpholino)Methanone] | 2.2 | 77.48
27 | Brc1ccc(-c2csc(N3CCCCC3)n2)cc1 [Example 32, 4-(4-Bromophenyl)-2-(Piperidin-1-yl)Thiazole] | 2.1 | 272.6
28 | CNC(=O)C1CCN(c2nc(-c3ccc(Br)cc3)cs2)CC1 [Example 70, 1-(4-(4-Bromophenyl)Thiazol-2-yl)-N-Methylpiperidine-4-Carboxamide] | 2.1 | 101.9
29 | CN(C)c1ccc(-c2csc(N3CCC(C(N)=O)CC3)n2)cc1 [Example 100, 1-(4-(4-(Dimethylamino)Phenyl)Thiazol-2-yl)Piperidine-4-Carboxamide] | 2.2 | 64.26
